According to patent US11401264B2, “Heterocyclic compound” (Orizuru Therapeutics, Inc., priority 2018, dated 2022):

Experiments:
[1] = tested on: cardiomyocytes (embryoid bodies) from double knock-in human iPS cell lines (mCherry at TNNI3 locus); assay: Experimental Example 2: mCherry expression in TNNI1+ cells by flow cytometry; format: cell-based; details: 3 μM, 8th-16th day, DMSO control 7.8
Protocol: For detection of cardiomyocyte maturation, double knock-in human iPS cell lines, in which reporter protein sequences, EmGFP (Sequence Number 1) and mCherry (Sequence Number 2) were inserted into gene loci for TNNI1 and TNNI3, respectively, were prepared (the human iPS cells were prepared from episomal vector (loaded gene; OCT3/4, KLF4, SOX2, L-MYC, LIN28, mouse p53DD) using PBMC (LP_167, Sample ID: 20130318) purchased from CTL (reference literature; Okita K, et al. Stem Cells. 2012 Nov. 29. doi: 10.1002/stem.1293)).
The maintenance culture of the above-mentioned reporter iPS cell lines was carried out by a conventional method (Okita K, et al. Stem Cells. 2012 Nov. 29. doi: 10.1002/stem.1293).
For differentiation induction into cardiomyocytes, the reporter iPS cell lines were treated with 0.5×TrypLE select (Life Technologies, diluted in 1/2 with 0.5 mM EDTA/PBS) for 4 to 5 minutes, and the cells were exfoliated using a cell scraper (IWAKI), and then dissociated into the single cell by pipetting. The medium was removed by centrifugation (1,000 rpm, 5 min), and the obtained cells were suspended in a medium prepared by adding 1% L-glutamine, transferrin 150 μg/mL, ascorbic acid 50 μg/mL (Sigma), monothioglycerol […], 10 μM Rock inhibitor (Y-27632), 2 ng/mL BMP4 (R&D) and 0.5% Matrigel (Growth Factor Reduced) to StemPro-34 SFM (ThermoFisher) in a 6 well-plate by 2×10^6 cells/1.5 mL/well, and then subjected to static culture at 37° C., under 5% oxygen condition to form embryoid bodies (0 day).
Next day (1st day), a medium prepared by adding 1% L-glutamine, transferrin 150 μg/mL, ascorbic acid 50 μg/mL (Sigma), monothioglycerol 4><10^−4 M, 1.8 μL (concentration 12 ng/mL) of 10 μg/mL activin A, […] (concentration 10 ng/mL) of 10 μg/mL bFGF and 2.7 μL (concentration 18 ng/mL) of 10 μg/mL BMP4 to 1.5 mL of StemPro-34 SFM (ThermoFisher) was added to each well of the 6 well plate containing the embryoid bodies to adjust the volume combined with the 0 day's medium to final 3 mL (activin A: 6 ng/ml, bFGF: 5 ng/ml, BMP4: 10 ng/ml), and the embryoid bodies were cultured at 37° C. for additional 2 days, under 5% oxygen condition.
Then (3rd day), the 6 well plate containing the embryoid bodies was inclined, and then left to stand for 1 to 2 minutes until the embryoid bodies were precipitated at the edges of the wells, and the supernatant was aspirated so as not to suck the embryoid bodies. Then, IMDM (ThermoFisher) medium was added to each well, and, as above, the plate was inclined, and then left to stand for 1 to 2 minutes, and the supernatant was aspirated so as not to suck the embryoid bodies. A medium prepared by adding 1% L-glutamine, transferrin 150 μg/mL, ascorbic acid 50 μg/mL (Sigma), monothioglycerol 4×10^−4 M, 10 ng/mL VEGF, 1 μM IWP-3, 0.6 μM dorsomorphin and 5.4 μM SB431542 to 3 mL of StemPro-34 SFM (ThermoFisher) was added to each well of the 6 well plate, and then the embryoid bodies were cultured at 37° C. for 3 days, under 5% oxygen condition.
Then (6th day), the 6 well plate containing the embryoid bodies was inclined, and then left to stand for 1 to 2 minutes until the embryoid bodies were precipitated at the edges of the wells, and the supernatant was aspirated so as not to suck the embryoid bodies. […]

[2] = tested on: cardiomyocytes from double knock-in human iPS cell lines (mCherry at TNNI3 locus); assay: Experimental Example 1: mCherry (TNNI3 reporter) immunostaining measured by high contents screening; format: cell-based; parameters: key to average fluorescent intensity (at 30 μM): —: The symbol in Table 2 means that the average fluorescent intensity cannot be evaluated due to cell decrease; details: read on 8th day, Alexa 647 anti-mCherry, control well 797; for average fluorescent intensity (at 1 μM): test compound 1 μM added on 3rd and 6th culture days; for average fluorescent intensity (at 30 μM): test compound 30 μM added on 3rd and 6th culture days
How it was run: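 Double knock-in iPS lines (EmGFP at TNNI1, mCherry at TNNI3) differentiated as embryoid bodies in stirred bioreactor at 37 °C, 5% O2: BMP4/activin A/bFGF, then VEGF, IWP-3, dorsomorphin, SB431542, then VEGF alone. On day 14, dissociated cells seeded at 1.0×10^4 cells/well on iMatrix-511 in AK02-based cardiomyocyte medium.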

SMILES	mCherry+ (%) [1]	average fluorescent intensity (at 1 μM) [2]	average fluorescent intensity (at 30 μM) [2]
O=C1c2ccc(N3CCCCC3)cc2CN1c1ccc2[nH]c(-c3cccnc3)nc2c1 [Example 46, 5-(piperidin-1-yl)-2-(2-(pyridin-3-yl)-1H-benzimidazol-5-yl)isoindolin-1-one]	47.2%	1142	1616
O=C(COc1ccc(-c2nc3cc(N4Cc5cc(N6CCCCC6)ccc5C4=O)ccc3[nH]2)cc1)Nc1ccc2c(c1)CCS2(=O)=O [Example 17, N-(1,1-dioxido-2,3-dihydro-1-benzothiophen-5-yl)-2-(4-(5-(1-oxo-5-(piperidin-1-yl)-1,3-dihydro-2H-isoindol-2-yl)-1H-benzimidazol-2-yl)phenoxy)acetamide]	42.1%	1544	1079
CCOc1ccc(-c2nc3cc(N4Cc5cc(-n6cccc6)ccc5C4=O)ccc3[nH]2)cc1 [Example 63, 2-(2-(4-ethoxyphenyl)-1H-benzimidazol-5-yl)-5-(1H-pyrrol-1-yl)isoindolin-1-one]		1194	—
O=C(COc1ccc(-c2nc3cc(N4Cc5cc(N6CCOCC6)ccc5C4=O)ccc3[nH]2)cc1)Nc1ccccc1 [Example 37, 2-(4-(5-(5-(rnorpholin-4-yl)-1-oxo-1,3-dihydro-2H-isoindol-2-yl)-1H-benzimidazol-2-yl)phenoxy)-N-phenylacetamide]		1696	1290
O=C1c2ccc(N3CCCCC3)cc2CN1c1ccc2[nH]c(-c3ccncc3)nc2c1 [Example 45, 5-(piperidin-1-yl)-2-(2-(pyridin-4-yl)-1H-benzimidazol-5-yl)isoindolin-1-one]	66.6%	1130	814
O=C1c2ccc(N3CCCCC3)cc2CN1c1ccc2[nH]c(-c3ccc(O)cc3)nc2c1 [Example 4, 2-(2-(4-hydroxyphenyl)-1H-benzimidazol-5-yl)-5-(piperidin-1-yl)isoindolin-1-one]	58.1%	1621	894
CC(C)CNC(=O)COc1ccc(-c2nc3cc(N4Cc5cc(N6CCCCC6)ccc5C4=O)ccc3[nH]2)cc1 [Example 26, N-isobutyl-2-(4-(5-(1-oxo-5-(piperidin-1-yl)-1,3-dihydro-2H-isoindol-2-yl)-1H-benzimidazol-2-yl)phenoxy)acetamide]		1809	—
CN(CCc1ccccc1)C(=O)CNC(=O)COc1ccc(-c2nc3cc(N4Cc5cc(N6CCCCC6)ccc5C4=O)ccc3[nH]2)cc1 [Example 11, N-methyl-N^~2^~-((4-(5-(1-oxo-5-(piperidin-1-yl)-1,3-dihydro-2H-isoindol-2-yl)-1H-benzimidazol-2-yl)phenoxy)acetyl)-N-(2-phenylethyl)glycinamide]		1182	—
O=C(COc1ccc(-c2nc3cc(N4Cc5cc(N6CCOCC6)ccc5C4=O)ccc3[nH]2)cc1)Nc1ccncc1 [Example 35, 2-(4-(5-(5-(morpholin-4-yl)-1-oxo-1,3-dihydro-2H-isoindol-2-yl)-1H-benzimidazol-2-yl)phenoxy)-N-(pyridin-4-yl)acetamide]		1536	1204
O=C(COc1ccc(-c2nc3cc(N4Cc5cc(N6CCCCC6)ccc5C4=O)ccc3[nH]2)cc1)NCCCc1ccncc1 [Example 12, 2-(4-(5-(1-oxo-5-(piperidin-1-yl)-1,3-dihydro-2H-isoindol-2-yl)-1H-benzimidazol-2-yl)phenoxy)-N-(3-(pyridin-4-yl)propyl)acetamide]		1675	1226
